In the supplement of paper PMC10307832:

Tests used:
Experiment in all cases: relative viability (nuclei count vs DMSO), 5 days (fraction); higher = more cells survive
Palbociclib + Lapatinib = compound: CC(=O)c1c(C)c2cnc(Nc3ccc(N4CCNCC4)cn3)nc2n(C2CCCC2)c1=O [Palbociclib] + CS(=O)(=O)CCNCc1ccc(-c2ccc3ncnc(Nc4ccc(OCc5cccc(F)c5)c(Cl)c4)c3c2)o1 [Lapatinib] (partner 2 µM)
Outline: (§1)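 Nuclei were stained with Hoechst during a one-step fixation (final 0.05% Triton X-100, 1% formaldehyde, 1 ug/ml Hoechst) carried out 5 days after dosing, then counted on 4× images. The cells, lung cancer lines in 1536-well plates, had been dosed by pin tool the day after seeding with one drug alone or a fixed anchor-drug dose plus five library-drug doses (not always all listed) in √10 steps. Relative viability is the nuclei count in treated wells divided by that in vehicle wells, and each value is the median of duplicate plates.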

Palbociclib + Phenformin = compound: CC(=O)c1c(C)c2cnc(Nc3ccc(N4CCNCC4)cn3)nc2n(C2CCCC2)c1=O [Palbociclib] + N=C(N)NC(=N)NCCc1ccccc1 [Phenformin] (partner 250 µM)
Outline: as §1

Palbociclib + AZD7762 = compound: CC(=O)c1c(C)c2cnc(Nc3ccc(N4CCNCC4)cn3)nc2n(C2CCCC2)c1=O [Palbociclib] + NC(=O)Nc1cc(-c2cccc(F)c2)sc1C(=O)N[C@H]1CCCNC1 [AZD7762] (partner 0.2 µM)
Outline: as §1

Palbociclib + Vorinostat = compound: CC(=O)c1c(C)c2cnc(Nc3ccc(N4CCNCC4)cn3)nc2n(C2CCCC2)c1=O [Palbociclib] + O=C(CCCCCCC(=O)Nc1ccccc1)NO [Vorinostat] (partner 1 µM)
Outline: as §1

Cell Line	relative viability (Palbociclib + Lapatinib; first compound 0.01 µM)	relative viability (Palbociclib + Lapatinib; first compound 0.1 µM)	relative viability (Palbociclib + Lapatinib; first compound 0.3162 µM)	relative viability (Palbociclib + Lapatinib; first compound 1 µM)	relative viability (Palbociclib + Phenformin; first compound 0.01 µM)	relative viability (Palbociclib + Phenformin; first compound 0.03162 µM)	relative viability (Palbociclib + Phenformin; first compound 0.1 µM)	relative viability (Palbociclib + Phenformin; first compound 0.3162 µM)	relative viability (Palbociclib + Phenformin; first compound 1 µM)	relative viability (Palbociclib + AZD7762; first compound 0.01 µM)	relative viability (Palbociclib + AZD7762; first compound 0.1 µM)	relative viability (Palbociclib + AZD7762; first compound 0.3162 µM)	relative viability (Palbociclib + AZD7762; first compound 1 µM)	relative viability (Palbociclib + Vorinostat; first compound 0.01 µM)	relative viability (Palbociclib + Vorinostat; first compound 0.1 µM)	relative viability (Palbociclib + Vorinostat; first compound 0.3162 µM)	relative viability (Palbociclib + Vorinostat; first compound 1 µM)	relative viability (Palbociclib + AZD7762; first compound 0.03162 µM)	relative viability (Palbociclib + Vorinostat; first compound 0.03162 µM)	relative viability (Palbociclib + Lapatinib; first compound 0.03162 µM)
LCLC-97TM1	0.891	0.894	0.697	0.304	0.41	0.32	0.414	0.351	0.227	0.391	0.252	0.199	0.152	0.698	0.423	0.363	0.249			
LK-2	1.09	0.642	1.23	0.842	0.507		0.305	0.309	0.38	0.472	0.374	0.338	0.303	0.383	0.281	0.248	0.324	0.297	0.217	
LOU-NH91	0.8	0.581	0.569	0.557	0.832	0.563	0.503	0.504	0.472	0.753	0.62	0.572	0.528	1.02	0.695	0.675	0.673	0.679	0.623	0.596
LU99A	0.936	0.922	0.853	0.577	0.851	0.507	0.688	0.837	0.602	0.405	0.277	0.34	0.27	0.517	0.435	0.587	0.399			0.539
LXF-289	0.852	0.838	0.747	0.7	0.51	0.294	0.452	0.462	0.378	1.03	1.06	0.96	0.779	0.77	0.66	0.782	0.672	0.692	0.268	0.888
NCI-H23	1	1.05	0.804	0.589	0.795		0.704	0.781	0.506	0.304	0.268	0.248	0.217	0.617	0.406	0.509	0.411	0.324	0.531	
NCI-H322M	0.637	0.513	0.482	0.387	0.741	0.605	0.553	0.502	0.409	0.59	0.524	0.507	0.451	0.837	0.602	0.55	0.454	0.572	0.784	0.563
NCI-H358	0.341	0.214	0.244	0.217	0.308	0.278	0.197	0.238	0.106	0.535	0.347	0.29	0.213	0.73	0.413	0.449	0.199	0.417	0.475	0.337
